Molecular target: σ1 receptor and the μ-opiod receptor
Test: μ and σ1 dual binding: combined class from the Ki of both radioligand assays
Parameters: species or system human; key to μ and σ1 dual binding: +: Both Ki-μ and Ki-σ1>=500 nM; ++: One Ki<500 nM while the other Ki is >=500 nM; +++: Both Ki-μ and Ki-σ1<500 nM; ++++: Both Ki-μ and Ki-σ1<100 nM
Conditions: transfected HEK-293 membranes (σ1), transfected CHO-K1 cell membranes (μ); for μ and σ1 dual binding: combined class for Ki-μ and Ki-σ1
Method in brief: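 Classes combine both Ki values, split at 500 nM and 100 nM. Human μ-opioid binding used 1 nM [3H]-DAMGO on CHO-K1 membranes (27 °C, 60 min, pH 7.4, naloxone 10 μM for NSB); human σ1 used 5 nM [3H](+)-pentazocine on HEK-293 membranes (37 °C, 120 min, pH 8, haloperidol 10 μM for NSB).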

| Compound | Ki range for both μ and σ1 (dual-binding class) [nM] | μ and σ1 dual binding |
| --- | --- | --- |
| Oc1cccc(C2CCN(Cc3cnn(Cc4ccccn4)c3)CC2)c1 [Example 171, 3-(1-((1-(pyridin-2-ylmethyl)-1H-pyrazol-4-yl)methyl)piperidin-4-yl)phenol] | < 500 |  |
| Oc1cccc(C2CCN(Cc3cnn(Cc4ncccc4F)c3)CC2)c1 [Example 172, 3-(1-((1-((3-fluoropyridin-2-yl)methyl)-1H-pyrazol-4-yl)methyl)piperidin-4-yl)phenol] | < 500 |  |
| Oc1cccc(C2CCN(Cc3cnn(Cc4ccc(F)cn4)c3)CC2)c1 [Example 173, 3-(1-((1-((5-fluoropyridin-2-yl)methyl)-1H-pyrazol-4-yl)methyl)piperidin-4-yl)phenol] | < 500 |  |
| CS(=O)(=O)Nc1cccc(C2CCN(Cc3cc(-c4ccccc4)no3)CC2)c1 [Example 174, N-(3-(1-((3-phenylisoxazol-5-yl)methyl)piperidin-4-yl)phenyl)methanesulfonamide] | < 100 |  |
| CS(=O)(=O)Nc1cccc(C2CCN(Cc3nnc(-c4ccccc4)o3)CC2)c1 [Example 175, N-(3-(1-((5-phenyl-1,3,4-oxadiazol-2-yl)methyl)piperidin-4-yl)phenyl)methanesulfonamide] |  | ++ |
| Oc1cccc(C2CCN(Cc3cc(-c4ccccc4)no3)CC2)c1 [Example 176, 3-(1-((3-phenylisoxazol-5-yl)methyl)piperidin-4-yl)phenol] | < 100 |  |
| Oc1cccc(C2CCN(Cc3cc(Cc4ccccc4)no3)CC2)c1 [Example 177, 3-(1-((3-benzylisoxazol-5-yl)methyl)piperidin-4-yl)phenol] | < 100 |  |
| CS(=O)(=O)Nc1cccc(C2CCN(Cc3cc(Cc4ccccc4)no3)CC2)c1 [Example 178, N-(3-(1-((3-benzylisoxazol-5-yl)methyl)piperidin-4-yl)phenyl)methanesulfonamide] | < 500 |  |
| CS(=O)(=O)Nc1ccc(F)c(C2CCN(Cc3cc(-c4ccccc4)no3)CC2)c1 [Example 179, N-(4-fluoro-3-(1-((3-phenylisoxazol-5-yl)methyl)piperidin-4-yl)phenyl)methanesulfonamide] | < 500 |  |
| CS(=O)(=O)Nc1cc(C2CCN(Cc3cc(-c4ccccc4)no3)CC2)ccc1F [Example 180, N-(2-fluoro-5-(1-((3-phenylisoxazol-5-yl)methyl)piperidin-4-yl)phenyl)methanesulfonamide] | < 500 |  |
| CC(C)S(=O)(=O)Nc1cccc(C2CCN(Cc3cc(-c4ccccn4)no3)CC2)c1 [Example 181, N-(3-(1-((3-(pyridin-2-yl)isoxazol-5-yl)methyl)piperidin-4-yl)phenyl)propane-2-sulfonamide] |  | ++ |
| CS(=O)(=O)Nc1cccc(C2CCN(Cc3ncn(-c4ccccc4)n3)CC2)c1 [Example 182, N-(3-(1-((1-phenyl-1H-1,2,4-triazol-3-yl)methyl)piperidin-4-yl)phenyl)methanesulfonamide] |  | ++ |
| CS(=O)(=O)Nc1cccc(C2CCN(Cc3cn(Cc4ccccc4)cn3)CC2)c1 [Example 183, N-(3-(1-((1-benzyl-1H-imidazol-4-yl)methyl)piperidin-4-yl)phenyl)methanesulfonamide] | < 500 |  |
| Oc1cccc(C2CCN(Cc3cn(Cc4ccccc4)cn3)CC2)c1 [Example 184, 3-(1-((1-benzyl-1H-imidazol-4-yl)methyl)piperidin-4-yl)phenol] | < 100 |  |
| CS(=O)(=O)Nc1cccc(C2CCN(Cc3cncn3Cc3ccccc3)CC2)c1 [Example 185, N-(3-(1-((1-benzyl-1H-imidazol-5-yl)methyl)piperidin-4-yl)phenyl)methanesulfonamide] |  | ++ |
| CC(C)S(=O)(=O)Nc1cccc(C2CCN(Cc3cn(Cc4ccccn4)cn3)CC2)c1 [Example 186, N-(3-(1-((1-(pyridin-2-ylmethyl)-1H-imidazol-4-yl)methyl)piperidin-4-yl)phenyl)propane-2-sulfonamide] |  | ++ |

From patent US9981942B2, “Piperidine derivatives having multimodal activity against pain” (LABORATORIOS DEL DR. ESTEVE S.A., priority 2013, dated 2018)
